{
  "source": "patent US20140309295A1",
  "about": "“ANTIEPILEPTIC, HYPOCHOLESTEROLEMIC AND NEUROPROTECTIVE COMPOUND” (NEURON BIOPHARMA, S.A., priority 2009, published 2014)",
  "key": {"HMGR enzyme": {"biological_target": "T1, HMGR enzyme (Homo sapiens, UniProt P04035)", "T1 sequence (P04035 426-888 limits assumed)": "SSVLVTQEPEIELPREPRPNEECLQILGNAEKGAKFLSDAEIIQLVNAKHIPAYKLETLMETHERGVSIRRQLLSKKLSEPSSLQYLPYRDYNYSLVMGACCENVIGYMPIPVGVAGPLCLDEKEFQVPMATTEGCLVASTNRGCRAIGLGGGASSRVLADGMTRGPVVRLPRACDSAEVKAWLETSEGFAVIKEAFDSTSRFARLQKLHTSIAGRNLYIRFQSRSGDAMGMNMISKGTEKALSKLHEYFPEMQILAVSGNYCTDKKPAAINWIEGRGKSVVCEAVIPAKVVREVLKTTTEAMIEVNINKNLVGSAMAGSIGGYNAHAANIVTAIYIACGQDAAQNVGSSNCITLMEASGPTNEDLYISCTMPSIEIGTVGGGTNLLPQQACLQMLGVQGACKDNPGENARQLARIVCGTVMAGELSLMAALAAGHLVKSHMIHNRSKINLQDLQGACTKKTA", "assay": "Inhibition of HMGR enzyme activity (NADPH absorbance 340 nm)", "type": "biochemical", "settings": "acid form, 37° C.", "method": "Due to the nature of the compound, the degree of inhibition of the HMGR enzyme by compound NST0037 was determined since this enzyme is key in cellular cholesterol synthesis and in the physiological regulation of said synthesis. […] For the reaction, HMGR uses NADPH as a reducing agent and 3-hydroxy-3-methylglutaryl coenzyme A (HMGCoA) as a substrate, producing mevalonic acid, CoASH and NADP+. The reduction of the absorbance at which NADPH (340 nm) is absorbed is a direct measurement of the catalytic activity of HMGR and serves to calculate the inhibition percentages of different compounds. In order to take the HMGR inhibition, the assay was performed on a 96-well plate, with a total reaction volume of 200 μl. The reaction buffer (50 mM KH2PO4, 1 M KCl, 2 mg/ml Bovine Serum Albumin [BSA] and 5 mM DTT, at pH=7.3) was prepared at the time the reaction was conducted and was maintained at 37° C. […] The acid form of the compounds is used in all the cases.\nThe reduction of absorbance at 340 nm allows calculating the percentage of HMGR enzyme activity with respect to the control. The IC50 were determined by means of the Trimmed Spearman-Karber method (Version 1.5)."}, "ApoB100 mice": {"test_system": "ApoB100 mice", "assay": "Hypocholesterolemic effect in endogenous hyperlipidemia model, single i.p. dose", "type": "in vivo", "settings": "50 mg/kg i.p., 12 hours", "method": "All the animals included for the experimental process were 46-week old males of the ApoB100 strain, which strain has a deficiency in removing cholesterol from the blood which causes an abnormally high increase of plasma cholesterol. The experiments were conducted strictly following the Guidance on the Operation of Animals (Scientific Procedures, Act. 1986). The animals had their respective quarantine period and were treated with maximum precaution to minimize possible contaminations for inoculations and handling.\nIn order to conduct the experiment on the fasting animals, blood was extracted by ocular puncture. The plasma was obtained from said blood, in which plasma total cholesterol levels and levels of its fractions were determined prior to administration of the substances under study. Immediately after that, the animals were intraperitoneally inoculated with 50 mg/kg of each of the test compounds. Four animals were treated with the vehicle and were considered the control group. […] Finally, a third group of five mice received 50 mg/Kg of NST0037. Twelve hours after the treatments, blood was again extracted from the fasting animals and the plasma was obtained from said blood."}, "[1]": {"test_system": "Candida albicans CECT 1002", "assay": "Fungicidal activity bioassay (growth inhibition halos)", "type": "cell-based", "settings": "β-hydroxy acid form", "method": "The fungicidal activity of NST0037 was analyzed by means of bioassay against Candida albicans. […] The assayed concentrations were the following: 2, 1.5, 1, 0.5, 0.25, 0.125, 0.06, 0.025 and 0.01 mM. Plates of MA medium (containing per liter: 20 g malt extract, 20 g glucose, 1 g mycopeptone and 10 g agar) previously inoculated with a culture of Candida albicans CECT (Spanish Type-Culture Collection) 1002 were prepared. With aid of a die (6 mm in diameter) various wells were prepared in which 40 μL of the previous solutions were deposited. The study was performed in triplicate and triplicates for each compound and concentration were included in each plate. The plates were kept at 4° C. for 1 hour and were subsequently incubated at 28° C. overnight. The presence of antifungal activity was determined by means of the formation of C. albicans growth inhibition halos."}, "seladin-1/DHCR24 gene": {"test_system": "seladin-1/DHCR24 gene", "assay": "seladin-1/DHCR24 gene expression in brain of wild-type mice", "type": "in vivo", "settings": "50 mg/kg oral, 4 hours, male C57BL6 mice", "method": "A control group received only the vehicle, which consisted of 0.25% carboxy methylcellulose in physiological saline. 4 hours after the oral administrations, the animals were sacrificed under gas anesthesia with isoflurane and the brains, previously perfused with PBS, were removed and immediately afterwards frozen in liquid nitrogen. Subsequently, the total RNA of the brain was extracted by means of the High Pure RNA Isolation kit (Roche) and the amount and quality of the RNA were analyzed by means of spectrophotometry (Infinite 200 with NanoQuant, Tecan) and viewing of the 18S and 28S bands by means of electrophoresis. The RT-PCR was performed by means of two steps, first, the mRNA was changed to cDNA using the RNA to cDNA kit (Applied Biosystem) and the gene expression was subsequently analyzed by means of TagMan probes using the validated probes Mn00519071_m1 for seladin-1/DHCR24 and Hs99999901_s1 for 18S (used to normalize the results) in the 7500 Fast Real-Time PCR System equipment (Applied Biosystem). The relative amount of the gene expression was determined by using the ΔΔCt method with the SDS v2.1.1 software (Applied Biosystem); the expression of 18S was used to normalize the measurement."}, "[2]": {"settings": "PAMPA, 18 h, 100 μM, pH 7.4"}},
  "data": [
    {"smiles": "CCC(CC)C(=O)O[C@H]1C[C@@H](C)C=C2C=C[C@H](C)[C@H](CC[C@@H]3C[C@@H](O)CC(=O)O3)[C@H]21", "note": "[NST0037, (1S,2S,6R,8S,8aR)-1,2,6,7,8,8a-hexahydro-3,7-dimethyl-8-[2-[(2R,4R)-tetrahydro-4-hydroxy-6-oxo-2H-pyran-2-yl]ethyl]-1-naphthalenyl-2-ethyl-butyrate]", "values": [
      {"measurement": "HMGR inhibition potency compared with atorvastatin", "setting": "HMGR enzyme", "value": "surprisingly close to that of more potent statin, atorvastatin"},
      {"measurement": "HDL-c levels", "setting": "ApoB100 mice", "value": "without changing"},
      {"measurement": "LDL-c levels", "setting": "ApoB100 mice", "value": "considerably reduced"},
      {"measurement": "VLDL-c levels", "setting": "ApoB100 mice", "value": "considerably reduced"},
      {"measurement": "esterified cholesterol (EC) levels", "setting": "ApoB100 mice", "value": "reduced the EC levels in a similar manner"},
      {"measurement": "free cholesterol (FC) levels", "setting": "ApoB100 mice", "value": "without changing FC levels"},
      {"measurement": "plasma total cholesterol levels", "setting": "ApoB100 mice; male ApoB100 mice", "value": "significant hypocholesterolemic effect"},
      {"measurement": "inhibition halos at lower concentrations", "setting": "[1]; 0.06 and 0.025 mM", "value": "the only one capable of causing inhibition halos"},
      {"measurement": "antifungal activity (inhibition halos)", "setting": "[1]; 2 to 0.01 mM", "value": "higher antifungal activity than the statins included in the assay"},
      {"measurement": "seladin-1/DHCR24 gene expression in brain", "setting": "seladin-1/DHCR24 gene", "value": "increased the gene expression"},
      {"measurement": "% BBB Passage", "setting": "[2]", "value": "22.5 ± 5.5", "unit": "%"}
    ]}
  ]
}
